Tests used:
L6 [1] = test: Ratio of cytotoxicity against L6 cells to that of antitrypanosomal activity against Trypanosoma brucei rhodesiense; assay type: functional
[2] = tested on: Trypanosoma brucei rhodesiense; test: In vitro antitrypanosomal activity against Trypanosoma brucei rhodesiense; assay type: functional, organism-based
L6 [3] = test: Cytotoxic activity against rat L6 cells; assay type: cell-based

IC50 [2] [µM] | SMILES | Ratio (L6 [1]) | IC50 (L6 [3]) [µM]
0.022 | N=C(N)Nc1ccc(Nc2ccc(NC(=N)N)cc2)cc1 | 29.5 | 
49.1 | CCCCCCCCN=C(N)N |  | 
7.2 | CC(C)(C)OC(=O)N1CCN(C(=O)OC(C)(C)C)C1=Nc1ccc(C(=O)c2ccc(N=C3N(C(=O)OC(C)(C)C)CCN3C(=O)OC(C)(C)C)cc2)cc1 |  | 
3.88 | O=C(NCCCN(CCNC(=O)OCc1ccccc1)CCc1ccccc1)OCc1ccccc1 | 6.4 | 24.7
14 | O=C(NCCCN(CCO)CCNC(=O)OCc1ccccc1)OCc1ccccc1 | 8.3 | 116
1.4 | c1c[nH]c(Nc2ccc(Nc3ccc(Nc4ncc[nH]4)cc3)cc2)n1 | 80.7 | 113
24.4 | CC(C)(C)OC(=O)/N=C(\NC(=O)OC(C)(C)C)Nc1ccc(S(=O)(=O)c2ccc(N/C(=N/C(=O)OC(C)(C)C)NC(=O)OC(C)(C)C)cc2)cc1 |  | 
7.1 | CC(=O)OCCN(CCCNC(=O)OCc1ccccc1)CCNC(=O)OCc1ccccc1 | >26 | > 191
21.4 | N=C(N)NCCCNCCNC(=N)N |  | 
113 | CCCNCCCNC1=NCCN1 |  | 
 | CCOC(CNC(=N)Nc1ccc(Cc2ccc(NC(=N)NCC(OCC)OCC)cc2)cc1)OCC | >554 | 
4.78 | O=C(CN1CCCN(C(=O)OCc2ccccc2)C1)OCc1ccccc1 | 18.6 | 89
1 | O=C(NCCCN(CCNC(=O)OCc1ccccc1)CCc1c[nH]c2ccccc12)OCc1ccccc1 | 7.8 | 7.8
2.4 | C1CCC(NC(=NCCCNCCN=C(NC2CCCCC2)NC2CCCCC2)NC2CCCCC2)CC1 |  | 
19.9 | CCCCCCCCCN=C(N)N |  | 
46.6 | CN(CCCNC1=NCCN1)CCNC1=NCCN1 |  | 
16.1 | N=C(N)NCCNCCNC(=N)N |  | 
31.7 | CC(C)(C)OC(=O)/N=C(/C=C(/O)OC(C)(C)C)Nc1ccc(Cc2ccc(N/C(=N\C(=O)OC(C)(C)C)NC(=O)OC(C)(C)C)cc2)cc1 |  | 
3.9 | O=C(NCCCN1CCN(C(=O)OCc2ccccc2)C1)OCc1ccccc1 | 27 | 106
19.3 | C(CCCNC1=NCCN1)CCNC1=NCCN1 |  | 

IC50 [2] [µM] | SMILES | Ratio (L6 [1]) | IC50 (L6 [3]) [µM]
17.4 | NCCCN(CCN)CCc1ccccc1 | 12 | 214
 | O=C(c1ccc(NC2=NCCN2)cc1)c1ccc(NC2=NCCN2)cc1 | >104 | 
0.47 | CC(C)(C)OC(=O)/N=C(/C=C(/O)OC(C)(C)C)Nc1ccc(Nc2ccc(N/C(=N\C(=O)OC(C)(C)C)NC(=O)OC(C)(C)C)cc2)cc1 | 7.9 | 3.7
 | c1cc(NC2=NCCN2)ccc1Cc1ccc(NC2=NCCN2)cc1 | 71 | 
0.0089 | N=C(N)c1ccc(/N=N/Nc2ccc(C(=N)N)cc2)cc1 [DIMINAZENE DIACETURATE] |  | 
 | N=C(N)Nc1ccc(S(=O)(=O)c2ccc(NC(=N)N)cc2)cc1 | >51 | 
13.8 | CC(C)(C)OC(=O)/N=C(\NC(=O)OC(C)(C)C)Nc1cccc(N2CCN(c3cccc(N/C(=N\C(=O)OC(C)(C)C)NC(=O)OC(C)(C)C)c3)CC2)c1 |  | 
 | CC(C)(C)OC(=O)N1CCN(C(=O)OC(C)(C)C)C1=Nc1ccc(S(=O)(=O)c2ccc(N=C3N(C(=O)OC(C)(C)C)CCN3C(=O)OC(C)(C)C)cc2)cc1 | 21.7 | 
0.225 | C(CCCCNC1=NCCN1)CCCCNC1=NCCN1 | 71 | 16
8.05 | N=C(N)NCCCCCCNC(=N)N | >37 | > 302
0.118 | c1cc(-c2ccc(NC3=NCCN3)cc2)ccc1NC1=NCCN1 | 881 | 104
0.27 | N=C(N)Nc1ccc(-c2ccc(NC(=N)N)cc2)cc1 | 172 | 46.4
61.8 | CN(CCN)CCCN |  | 
4.5 | N=C(N)c1cccc(/C=N/N=C(\N)N/N=C/c2cccc(C(=N)N)c2)c1 |  | 
0.251 | N=C(N)NCCCCCCCCNC(=N)N | >1100 | > 276
27.6 | c1ccc(CCN(CCCNC2=NCCN2)CCNC2=NCCN2)cc1 |  | 
 | N=C(N)Nc1ccc(C(=O)c2ccc(NC(=N)N)cc2)cc1 | 13.1 | 
0.049 | N=C(N)NCCCCCCCCCNC(=N)N | >5294 | > 265
29.7 | C(CNCCCNC1=NCCN1)CNC1=NCCN1 |  | 
0.047 | N=C(N)NCCCCCCCCCCCCNC(=N)N | 13 | 0.63

IC50 [2] [µM] | SMILES | Ratio (L6 [1]) | IC50 (L6 [3]) [µM]
69.1 | C(CNCCNC1=NCCN1)CNC1=NCCN1 |  | 
4.5 | N=C(N)NCCCN(CCNC(=N)N)CCc1ccccc1 | >43 | > 199
 | c1cc(Nc2ccc(NC3=NCCN3)cc2)ccc1NC1=NCCN1 | 3072 | 
 | CC(C)(C)OC(=O)N1CCN(C(=O)OC(C)(C)C)C1=Nc1ccc(Nc2ccc(N=C3N(C(=O)OC(C)(C)C)CCN3C(=O)OC(C)(C)C)cc2)cc1 | 202 | 
21.2 | N=C(N)NCCCNCCCNC(=N)N |  | 
30.3 | CC(C)(C)OC(=O)N1CCC(N2CCN(C(=O)OC(C)(C)C)CC2)CC1 |  | 
3.1 | CN(CCCNC(=O)OCc1ccccc1)CCNC(=O)OCc1ccccc1 | 41 | 130
71.2 | C1CNC(N2CCC(N3CCN(C4=NCCN4)CC3)CC2)=N1 |  | 
0.414 | CCCCC[P+](CCCCC)(CCCCC)c1ccc(C(=O)c2ccc([P+](CCCCC)(CCCCC)CCCCC)cc2)cc1.[Br-].[Br-] | 28.5 | 11.8
84.4 | C1CNC(NCCNCCNC2=NCCN2)=N1 |  | 
57.9 | C1CC(N2CCNCC2)CCN1 |  | 
0.98 | C1CCC(/N=C(\NC2CCCCC2)N(CCCN=C(NC2CCCCC2)NC2CCCCC2)CCN=C(NC2CCCCC2)NC2CCCCC2)CC1 | >82 | > 83
11.6 | CC(C)(C)OC(=O)N1CCN(C(=O)OC(C)(C)C)C1=Nc1ccc(Cc2ccc(N=C3N(C(=O)OC(C)(C)C)CCN3C(=O)OC(C)(C)C)cc2)cc1 |  | 
0.453 | C(CCCCNC1=NCCN1)CCCNC1=NCCN1 | 9.4 | 4.2
 | CCOC(CNC(=N)Nc1ccc(Nc2ccc(NC(=N)NCC(OCC)OCC)cc2)cc1)OCC | >767 | 
25.9 | O=C(c1ccc(Br)cc1)c1ccc(Br)cc1 | >9.4 | > 244
0.107 | C(CCCCCCNC1=NCCN1)CCCCCNC1=NCCN1 | 22 | 2.35
 | N=C(N)Nc1ccc(Cc2ccc(NC(=N)N)cc2)cc1 | 17.4 | 
12.6 | CC(C)(C)OC(=O)NCC/N=C(\S)N1CCC(N2CCN(/C(S)=N\CCNC(=O)OC(C)(C)C)CC2)CC1 |  | 

SMILES | IC50 [2] [µM] | Ratio (L6 [1]) | IC50 (L6 [3]) [µM]
NCCCN(CCN)CCc1c[nH]c2ccccc12 | 13.8 |  | 
O=[N+]([O-])c1ccc(-c2ccc([N+](=O)[O-])cc2)cc1 | 41.8 |  | 
CCCCCCCCCCCCNC(=N)N [DODINE] | 11 | 1.8 | 19.6
Nc1nc(N)nc(Nc2ccc([As]3SCC(CO)S3)cc2)n1 (stereo unspecified) [MELARSOPROL] | 5.5 | 3456 | 
Nc1ccc(-c2ccc(N)cc2)cc1 [BENZIDINE] | 1.42 | >152 | > 217
